Assay results from patent US10251394B2, “Molecules having pesticidal utility, and intermediates, compositions, and processes, related thereto” (Dow AgroSciences LLC, priority 2016, dated 2019).

Tests used:
Type in all cases: in vivo
[1] = test system: Beet Armyworm (Spodoptera exigua); assay: Bioassay on Beet Armyworm (BAW), 128-well diet tray assay; details: Beet Armyworm, Table ABC, read-out: BAW rating
Summary of the method: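 Percent mortality, averaged over eight wells, was scored after five to seven days at 25° C under 14:10 light-dark. Each well's diet carried 50 μg/cm^2 of test molecule applied in acetone-water (90:10) and dried before one to five second-instar larvae were added.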

[2] = test system: Cabbage Looper (Trichoplusia ni); assay: Bioassay on Cabbage Looper (CL), 128-well diet tray assay; details: Cabbage Looper, Table ABC, read-out: CL rating
Summary of the method: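 Mortality after five to seven days at 25° C (14:10 photoperiod), averaged over eight wells per compound. Diet in each well carried 50 μg/cm^2 of dried test molecule and received one to five second-instar larvae.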

[3] = test system: Yellow Fever Mosquito (Aedes aegypti); assay: Bioassay on Yellow Fever Mosquito (YFM) larvae, 96-well plate; details: Table ABC
Summary of the method: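 About 1-day-old larvae in water with liver powder were added to wells holding compound from a 4000 ppm DMSO master diluted in 90:10 water:acetone. Plates covered and kept at room temperature for 3 days, then each well scored for mortality on a rating scale.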

For C[C@@H](NC(=O)c1ccc(/C(F)=C/C(c2ccc(Cl)c(F)c2)C(F)(F)F)cc1C(F)(F)F)C(=O)N(C)CC(F)(F)F (stereo partly drawn) [PF20, 4-((Z)-3-(4-Chloro-3-fluorophenyl)-1,4,4,4-tetrafluorobut-1-en-1-yl)-N—((R)-1-(methyl(2,2,2-trifluoroethyl)amino)-1-oxopropan-2-yl)-2-(trifluoromethyl)benzamide], the pest or weed control at 50 µg/cm2 [1] was 50 to 100%, the pest or weed control at 50 µg/cm2 [2] was 50 to 100% and the YFM rating [3] was “B (More than 0-Less than 80)”.
CC(=O)CNC(=O)CNC(=O)c1ccc(/C(F)=C/C(c2cc(Cl)c(Cl)c(Cl)c2)C(F)(F)F)cc1C(F)(F)F (stereo not drawn) [F163, (Z)—N-(2-Oxo-2-((2-oxopropyl)amino)ethyl)-4-(1,4,4,4-tetrafluoro-3-(3,4,5-trichlorophenyl)but-1-en-1-yl)-2-(trifluoromethyl)benzamide] was tested, and the pest or weed control at 50 µg/cm2 [1] was 50 to 100%, the pest or weed control at 50 µg/cm2 [2] was 50 to 100% and the YFM rating [3] was “A (80-100)”.
In the case of O=C(NC1(C(=O)NCC(F)(F)F)CC1)c1ccc(/C(F)=C/C(c2ccc(Cl)c(Cl)c2)C(F)(F)F)cc1C(F)(F)F (stereo not drawn) [F41, (Z)-4-(3-(3,4-Dichlorophenyl)-1,4,4,4-tetrafluorobut-1-en-1-yl)-N-(1-((2,2,2-trifluoroethyl)carbamoyl)cyclopropyl)-2-(trifluoromethyl)benzamide], the pest or weed control at 50 µg/cm2 [1] is reported as 50 to 100%, the pest or weed control at 50 µg/cm2 [2] is reported as 50 to 100% and the YFM rating [3] is reported as “A (80-100)”.
For C[C@@H](NC(=O)c1ccc(/C(F)=C/C(c2ccc(Cl)c(Br)c2)C(F)(F)F)cc1C(F)(F)F)C(=O)NCC(F)(F)F (stereo partly drawn) [F138, 4-((Z)-3-(3-Bromo-4-chlorophenyl)-1,4,4,4-tetrafluorobut-1-en-1-yl)-N—((R)-1-oxo-1-((2,2,2-trifluoroethyl)amino)propan-2-yl)-2-(trifluoromethyl)benzamide], the pest or weed control at 50 µg/cm2 [1] was 50 to 100%, the pest or weed control at 50 µg/cm2 [2] was 50 to 100% and the YFM rating [3] was “A (80-100)”.
With C[C@@H](NC(=O)c1ccc(/C(F)=C/C(c2ccc(Cl)c(Br)c2)C(F)(F)F)cc1C(F)(F)F)C(=O)N(C)CC(F)(F)F (stereo partly drawn) [PF37, 4-((Z)-3-(3-Bromo-4-chlorophenyl)-1,4,4,4-tetrafluorobut-1-en-1-yl)-N—((R)-1-(methyl(2,2,2-trifluoroethyl)amino)-1-oxopropan-2-yl)-2-(trifluoromethyl)benzamide] the pest or weed control at 50 µg/cm2 [1] was 50 to 100%, the pest or weed control at 50 µg/cm2 [2] was 50 to 100% and the YFM rating [3] was “B (More than 0-Less than 80)”.
In the case of COc1ccc(C(/C=C(\F)c2ccc(C(=O)N[C@H](C)C(=O)NCC(F)(F)F)c(C(F)(F)F)c2)C(F)(F)F)cc1Cl (stereo partly drawn) [F161, 4-((Z)-3-(3-Chloro-4-methoxyphenyl)-1,4,4,4-tetrafluorobut-1-en-1-yl)-N—((R)-1-oxo-1-((2,2,2-trifluoroethyl)amino)propan-2-yl)-2-(trifluoromethyl)benzamide], the pest or weed control at 50 µg/cm2 [1] is reported as 50 to 100%, the pest or weed control at 50 µg/cm2 [2] is reported as 50 to 100% and the YFM rating [3] is reported as “A (80-100)”.
With Cc1cc(C(/C=C(\F)c2ccc(C(=O)N[C@H](C)C(=O)N(C)CC(F)(F)F)c(C(F)(F)F)c2)C(F)(F)F)cc(Cl)c1Cl (stereo partly drawn) [PF14, 4-((Z)-3-(3,4-Dichloro-5-methylphenyl)-1,4,4,4-tetrafluorobut-1-en-1-yl)-N—((R)-1-(methyl(2,2,2-trifluoroethyl)amino)-1-oxopropan-2-yl)-2-(trifluoromethyl)benzamide] the pest or weed control at 50 µg/cm2 [1] was 50 to 100%, the pest or weed control at 50 µg/cm2 [2] was 50 to 100% and the YFM rating [3] was “A (80-100)”.
In the case of O=C(CNC(=O)c1ccc(/C(F)=C/C(c2cc(Cl)cc(Br)c2)C(F)(F)F)cc1C(F)(F)F)NCC(F)(F)F (stereo not drawn) [F122, (Z)-4-(3-(3-Bromo-5-chlorophenyl)-1,4,4,4-tetrafluorobut-1-en-1-yl)-N-(2-oxo-2-((2,2,2-trifluoroethyl)amino)ethyl)-2-(trifluoromethyl)benzamide], the pest or weed control at 50 µg/cm2 [1] is reported as 50 to 100%, the pest or weed control at 50 µg/cm2 [2] is reported as 50 to 100% and the YFM rating [3] is reported as “B (More than 0-Less than 80)”.
With C[C@@H](NC(=O)c1ccc(/C(F)=C/C(c2ccc(C(F)(F)F)c(Cl)c2)C(F)(F)F)cc1C(F)(F)F)C(=O)NCC(F)(F)F (stereo partly drawn) [F205, 4-((Z)-3-(3-Chloro-4-(trifluoromethyl)phenyl)-1,4,4,4-tetrafluorobut-1-en-1-yl)-N—((R)-1-oxo-1-((2,2,2-trifluoroethyl)amino)propan-2-yl)-2-(trifluoromethyl)benzamide] the pest or weed control at 50 µg/cm2 [1] was 50 to 100%, the pest or weed control at 50 µg/cm2 [2] was 50 to 100% and the YFM rating [3] was “B (More than 0-Less than 80)”.
In the case of C[C@@H](NC(=O)c1ccc(/C(F)=C/C(c2ccc(F)c(Cl)c2)C(F)(F)F)cc1C(F)(F)F)C(=O)NCC(F)(F)F (stereo partly drawn) [F132, 4-((Z)-3-(3-Chloro-4-fluorophenyl)-1,4,4,4-tetrafluorobut-1-en-1-yl)-N—((R)-1-oxo-1-((2,2,2-trifluoroethyl)amino)propan-2-yl)-2-(trifluoromethyl)benzamide], the pest or weed control at 50 µg/cm2 [1] is reported as 50 to 100%, the pest or weed control at 50 µg/cm2 [2] is reported as 50 to 100% and the YFM rating [3] is reported as “B (More than 0-Less than 80)”.
In the case of O=C(CNC(=O)c1ccc(/C(F)=C/C(c2cc(F)c(F)c(Cl)c2)C(F)(F)F)cc1C(F)(F)F)NCC(F)(F)F (stereo not drawn) [F153, (Z)-4-(3-(3-Chloro-4,5-difluorophenyl)-1,4,4,4-tetrafluorobut-1-en-1-yl)-N-(2-oxo-2-((2,2,2-trifluoroethyl)amino)ethyl)-2-(trifluoromethyl)benzamide], the pest or weed control at 50 µg/cm2 [1] is reported as 50 to 100%, the pest or weed control at 50 µg/cm2 [2] is reported as 50 to 100% and the YFM rating [3] is reported as “A (80-100)”.
O=C(CNC(=S)c1ccc(/C(F)=C/C(c2cc(Cl)c(Cl)c(Cl)c2)C(F)(F)F)cc1C(F)(F)F)NCC(F)(F)F (stereo not drawn) [PF82, (Z)-2-(4-(1,4,4,4-tetrafluoro-3-(3,4,5-trichlorophenyl)but-1-en-1-yl)-2-(trifluoromethyl)phenylthioamido)-N-(2,2,2-trifluoroethyl)acetamide] was tested, and the pest or weed control at 50 µg/cm2 [1] was 50 to 100%, the pest or weed control at 50 µg/cm2 [2] was 50 to 100% and the YFM rating [3] was “A (80-100)”.
In the case of C[C@@H](NC(=O)c1ccc(/C(F)=C/C(c2ccc(Cl)c(Cl)c2)C(F)(F)F)cc1C(F)(F)F)C(=O)N(C)CC(F)(F)F (stereo partly drawn) [F73, 4-((Z)-3-(3,4-Dichlorophenyl)-1,4,4,4-tetrafluorobut-1-en-1-yl)-N—((R)-1-(methyl(2,2,2-trifluoroethyl)amino)-1-oxopropan-2-yl)-2-(trifluoromethyl)benzamide], the pest or weed control at 50 µg/cm2 [1] is reported as 50 to 100%, the pest or weed control at 50 µg/cm2 [2] is reported as 50 to 100% and the YFM rating [3] is reported as “A (80-100)”.
C=Cc1c(Cl)cc(C(/C=C(\F)c2ccc(C(=O)N[C@H](C)C(=O)N(C)CC(F)(F)F)c(C(F)(F)F)c2)C(F)(F)F)cc1Cl (stereo partly drawn) [F86, 4-((Z)-3-(3,5-Dichloro-4-vinylphenyl)-1,4,4,4-tetrafluorobut-1-en-1-yl)-N—((R)-1-(methyl(2,2,2-trifluoroethyl)amino)-1-oxopropan-2-yl)-2-(trifluoromethyl)benzamide] was tested, and the pest or weed control at 50 µg/cm2 [1] was 50 to 100%, the pest or weed control at 50 µg/cm2 [2] was 50 to 100% and the YFM rating [3] was “A (80-100)”.
For CCc1ccc(C(/C=C(\F)c2ccc(C(=O)NCC(=O)NCC(F)(F)F)c(C(F)(F)F)c2)C(F)(F)F)cc1Cl (stereo not drawn) [F165, (Z)-4-(3-(3-Chloro-4-ethylphenyl)-1,4,4,4-tetrafluorobut-1-en-1-yl)-N-(2-oxo-2-((2,2,2-trifluoroethyl)amino)ethyl)-2-(trifluoromethyl)benzamide], the pest or weed control at 50 µg/cm2 [1] was 50 to 100%, the pest or weed control at 50 µg/cm2 [2] was 50 to 100% and the YFM rating [3] was “B (More than 0-Less than 80)”.
For C[C@@H](NC(=O)c1ccc(/C(F)=C/C(c2cc(Cl)c(Br)c(Cl)c2)C(F)(F)F)cc1C(F)(F)F)C(=O)N(C)CC(F)(F)F (stereo partly drawn) [F76, 4-((Z)-3-(4-Bromo-3,5-dichlorophenyl)-1,4,4,4-tetrafluorobut-1-en-1-yl)-N—((R)-1-(methyl(2,2,2-trifluoroethyl)amino)-1-oxopropan-2-yl)-2-(trifluoromethyl)benzamide], the pest or weed control at 50 µg/cm2 [1] was 50 to 100%, the pest or weed control at 50 µg/cm2 [2] was 50 to 100% and the YFM rating [3] was “A (80-100)”.
For C[C@@H](NC(=O)c1ccc(/C(F)=C/C(c2cc(Br)cc(Br)c2)C(F)(F)F)cc1C(F)(F)F)C(=O)N(C)CC(F)(F)F (stereo partly drawn) [F83, 4-((Z)-3-(3,5-Dibromophenyl)-1,4,4,4-tetrafluorobut-1-en-1-yl)-N—((R)-1-(methyl(2,2,2-trifluoroethyl)amino)-1-oxopropan-2-yl)-2-(trifluoromethyl)benzamide], the pest or weed control at 50 µg/cm2 [1] was 50 to 100%, the pest or weed control at 50 µg/cm2 [2] was 50 to 100% and the YFM rating [3] was “A (80-100)”.
C[C@@H](NC(=O)c1ccc(/C(F)=C/C(c2cc(F)c(F)c(F)c2)C(F)(F)F)cc1C(F)(F)F)C(=O)NCC(F)(F)F (stereo partly drawn) [F159, N—((R)-1-Oxo-1-((2,2,2-trifluoroethyl)amino)propan-2-yl)-4-((Z)-1,4,4,4-tetrafluoro-3-(3,4,5-trifluorophenyl)but-1-en-1-yl)-2-(trifluoromethyl)benzamide] was tested, and the pest or weed control at 50 µg/cm2 [1] was 50 to 100%, the pest or weed control at 50 µg/cm2 [2] was 50 to 100% and the YFM rating [3] was “A (80-100)”.
For CN(CC(F)(F)F)C(=O)C1(NC(=O)c2ccc(/C(F)=C/C(c3ccc(Cl)c(Br)c3)C(F)(F)F)cc2C(F)(F)F)CC1 (stereo not drawn) [PF39, (Z)-4-(3-(3-Bromo-4-chlorophenyl)-1,4,4,4-tetrafluorobut-1-en-1-yl)-N-(1-(methyl(2,2,2-trifluoroethyl)carbamoyl)cyclopropyl)-2-(trifluoromethyl)benzamide], the pest or weed control at 50 µg/cm2 [1] was 50 to 100%, the pest or weed control at 50 µg/cm2 [2] was 50 to 100% and the YFM rating [3] was “B (More than 0-Less than 80)”.
